Where two headings read alike, the source gives them in different places.
Molecular target: Active Human ERK2 (hERK2) (Homo sapiens (Human), UniProt P28482)
Assay: Active Human ERK2 (hERK2) Activity Assay (IMAP-FP)
Assay type: biochemical
Experimental: Assays Active Human ERK2 (hERK2) Activity Assay:
Activated ERK2 activity was determined in an IMAP-FP assay (Molecular Devices). […] The final reaction in each well of 25 μL consists of 0.5 nM hERK2, 900 nM unlabeled peptide, 80 nM labeled-peptide, and 30 μM ATP. Phosphorylation reactions were allowed to proceed for 60 minutes and were immediately quenched by the addition of […] IMAP detection beads (1:1000 dilutions) in IMAP binding buffer (Molecular Devices) with 24 mM NaCl. Plates were read on EnVision reader after 60 minutes binding equilibration using Fluorescence Polarization protocol (Perkin Elmer).

[1] = phosphorylated active hERK2, 30 μM ATP, average, read-out: ERK 2 Human average IC50
[2] = read-out: AERK2 IC50 (Active human ERK2 Activity Assay)

Chain of Active Human ERK2 (hERK2) (P28482 whole entry): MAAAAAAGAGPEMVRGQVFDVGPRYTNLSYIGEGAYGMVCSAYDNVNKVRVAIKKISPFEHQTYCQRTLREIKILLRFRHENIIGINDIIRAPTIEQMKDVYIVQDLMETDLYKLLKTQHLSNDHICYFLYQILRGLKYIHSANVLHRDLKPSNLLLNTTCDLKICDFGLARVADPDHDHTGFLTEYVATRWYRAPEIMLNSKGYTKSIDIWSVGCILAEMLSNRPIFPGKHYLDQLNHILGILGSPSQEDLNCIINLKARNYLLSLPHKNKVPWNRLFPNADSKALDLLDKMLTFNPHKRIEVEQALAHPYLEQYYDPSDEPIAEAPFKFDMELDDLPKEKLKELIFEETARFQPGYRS

IC50 [1] | IC50 [2] | Structure (SMILES)
2.74 nM | – | Cc1cc(-c2n[nH]c3cc(NC(=O)NCc4ccc5ccccc5c4)ncc23)ccn1 [Example 45, 1-[3-(2-methylpyridin-4-yl)-1H-pyrazolo[4,3-c]pyridin-6-yl]-3-(naphthalen-2-ylmethyl)urea]
1.04 nM | 0.2 to 1.7 nM | Cc1cc(-c2n[nH]c3cc(NC(=O)NC(C)c4cccnc4)ncc23)ccn1 (stereo not shown) [Example 49, 1-[3-(2-methylpyridin-4-yl)-1H-pyrazolo[4,3-c]pyridin-6-yl]-3-(1-pyridin-3-ylethyl)urea]
1.84 nM | 0.2 to 1.7 nM | C[C@@H](NC(=O)Nc1cc2[nH]nc(-c3ccnc(F)c3)c2cn1)c1ccc(Cl)cc1 [Example 57, 1-[(1R)-1-(4-chlorophenyl)ethyl]-3-[3-(2-fluoropyridin-4-yl)-1H-pyrazolo[4,3-c]pyridin-6-yl]urea]
0.514 nM | 0.2 to 1.7 nM | C[C@@H](NC(=O)Nc1cc2[nH]nc(-c3cnn(C)c3)c2cn1)c1ccc(Cl)cc1 [Example 59, 1-[(1R)-1-(4-chlorophenyl)ethyl]-3-[3-(1-methyl-1H-pyrazol-4-yl)-1H-pyrazolo[4,3-c]pyridin-6-yl]urea]
127 nM | – | Cc1cc(-c2n[nH]c3cc(NC(=O)Nc4ccccc4)ncc23)ccn1 [Example 61, 1-[3-(2-methylpyridin-4-yl)-1H-pyrazolo[4,3-c]pyridin-6-yl]-3-phenylurea]
0.672 nM | 0.2 to 1.7 nM | C[C@@H](NC(=O)Nc1cc2[nH]nc(-c3ccc4nn(C)cc4c3)c2cn1)c1cccc(Cl)c1 [Example 62, 1-[(1R)-1-(3-chlorophenyl)ethyl]-3-[3-(2-methyl-2H-indazol-5-yl)-1H-pyrazolo[4,3-c]pyridin-6-yl]urea]
0.405 nM | 0.2 to 1.7 nM | C[C@@H](NC(=O)Nc1cc2[nH]nc(-c3ccc4nn(C)cc4c3)c2cn1)c1ccc(F)cc1 [Example 63, 1-[(1R)-1-(4-fluorophenyl)ethyl]-3-[3-(2-methyl-2H-indazol-5-yl)-1H-pyrazolo[4,3-c]pyridin-6-yl]urea]
0.562 nM | 0.2 to 1.7 nM | C[C@@H](NC(=O)Nc1cc2[nH]nc(-c3ccc4nn(C)cc4c3)c2cn1)c1ccc(Cl)cc1 [Example 65, 1-[(1R)-1-(4-chlorophenyl)ethyl]-3-[3-(2-methyl-2H-indazol-5-yl)-1H-pyrazolo[4,3-c]pyridin-6-yl]urea]
1.06 nM | 0.2 to 1.7 nM | C[C@@H](NC(=O)Nc1cc2[nH]nc(-c3ccc(C#N)cc3)c2cn1)c1ccccc1 [Example 66, 1-[3-(4-cyanophenyl)-1H-pyrazolo[4,3-c]pyridin-6-yl]-3-[(1R)-1-phenylethyl]urea]
0.428 nM | 0.2 to 1.7 nM | C/C=C/c1n[nH]c2cc(NC(=O)N[C@H](C)c3ccccc3)ncc12 [Example 67, 1-[(1R)-1-phenylethyl]-3-{3-[(1E)-prop-1-en-1-yl]-1H-pyrazolo[4,3-c]pyridin-6-yl}urea]
0.432 nM | 0.2 to 1.7 nM | Cc1cc(-c2n[nH]c3cc(NC(=O)N[C@H](C)c4ccc(F)c(Cl)c4)ncc23)ccn1 [Example 69, 1-[(1R)-1-(3-chloro-4-fluorophenyl)ethyl]-3-[3-(2-methylpyridin-4-yl)-1H-pyrazolo[4,3-c]pyridin-6-yl]urea]
0.159 nM | 0.2 to 1.7 nM | C[C@@H](NC(=O)Nc1cc2[nH]nc(-c3ccc(=O)n(C)c3)c2cn1)c1ccc(F)cc1 [Example 71, 1-[(1R)-1-(4-fluorophenyl)ethyl]-3-[3-(1-methyl-6-oxo-1,6-dihydropyridin-3-yl)-1H-pyrazolo[4,3-c]pyridin-6-yl]urea]
0.709 nM | 0.2 to 1.7 nM | C[C@@H](NC(=O)Nc1cc2[nH]nc(-c3cnn(C)c3)c2cn1)c1ccc(F)c(Cl)c1 [Example 72, 1-[(1R)-1-(3-chloro-4-fluorophenyl)ethyl]-3-[3-(1-methyl-1H-pyrazol-4-yl)-1H-pyrazolo[4,3-c]pyridin-6-yl]urea]
9.34 nM | – | C[C@@H](NC(=O)Nc1cc2[nH]nc(-c3ccc(F)cc3)c2cn1)c1ccc(F)c(Cl)c1 [Example 73, 1-[(1R)-1-(3-chloro-4-fluorophenyl)ethyl]-3-[3-(4-fluorophenyl)-1H-pyrazolo[4,3-c]pyridin-6-yl]urea]
0.603 nM | 0.2 to 1.7 nM | C[C@@H](NC(=O)Nc1cc2[nH]nc(-c3cn[nH]c3)c2cn1)c1ccc(F)c(Cl)c1 [Example 74, 1-[(1R)-1-(3-chloro-4-fluorophenyl)ethyl]-3-[3-(1H-pyrazol-4-yl)-1H-pyrazolo[4,3-c]pyridin-6-yl]urea]
2.64 nM | – | C[C@@H](NC(=O)Nc1cc2[nH]nc(-c3ccnc(Cl)c3)c2cn1)c1ccc(F)c(Cl)c1 [Example 75, 1-[(1R)-1-(3-chloro-4-fluorophenyl)ethyl]-3-[3-(2-chloropyridin-4-yl)-1H-pyrazolo[4,3-c]pyridin-6-yl]urea]
56.1 nM | – | C[C@@H](NC(=O)Nc1cc2[nH]nc(-c3cccc(Cl)c3)c2cn1)c1ccc(F)c(Cl)c1 [Example 76, 1-[(1R)-1-(3-chloro-4-fluorophenyl)ethyl]-3-[3-(3-chlorophenyl)-1H-pyrazolo[4,3-c]pyridin-6-yl]urea]

Second part, the molecule before the results:

Structure (SMILES) | IC50 [1] | IC50 [2]
Cc1cc(-c2n[nH]c3cc(NC(=O)N(C)Cc4cccnc4)ncc23)ccn1 [Example 46, 1-methyl-3-[3-(2-methylpyridin-4-yl)-1H-pyrazolo[4,3-c]pyridin-6-yl]-1-(pyridin-3-ylmethyl)urea] | 763 nM | –
Cc1cc(-c2n[nH]c3cc(NC(=O)NCCc4ccccn4)ncc23)ccn1 [Example 47, 1-[3-(2-methylpyridin-4-yl)-1H-pyrazolo[4,3-c]pyridin-6-yl]-3-(2-pyridin-2-ylethyl)urea] | 2.34 nM | –
COCCN(Cc1cccnc1)C(=O)Nc1cc2[nH]nc(-c3ccnc(C)c3)c2cn1 [Example 50, 1-(2-methoxyethyl)-3-[3-(2-methylpyridin-4-yl)-1H-pyrazolo[4,3-c]pyridin-6-yl]-1-(pyridin-3-ylmethyl)urea] | 899 nM | –
Cc1cc(-c2n[nH]c3cc(NC(=O)NCc4cncc(F)c4)ncc23)ccn1 [Example 51, 1-[(5-fluoropyridin-3-yl)methyl]-3-[3-(2-methylpyridin-4-yl)-1H-pyrazolo[4,3-c]pyridin-6-yl]urea] | 1 nM | 0.2 to 1.7 nM
Cc1cc(-c2n[nH]c3cc(NC(=O)NCc4c(F)cccc4F)ncc23)ccn1 [Example 52, 1-(2,6-difluorobenzyl)-3-[3-(2-methylpyridin-4-yl)-1H-pyrazolo[4,3-c]pyridin-6-yl]urea] | 0.655 nM | 0.2 to 1.7 nM
Cc1cc(-c2n[nH]c3cc(NC(=O)NCc4cccc(F)c4)ncc23)ccn1 [Example 53, 1-(3-fluorobenzyl)-3-[3-(2-methylpyridin-4-yl)-1H-pyrazolo[4,3-c]pyridin-6-yl]urea] | 0.245 nM | 0.2 to 1.7 nM
Cc1cc(-c2n[nH]c3cc(NC(=O)NCc4ccc(C(F)(F)F)cc4)ncc23)ccn1 [Example 54, 1-[3-(2-methylpyridin-4-yl)-1H-pyrazolo[4,3-c]pyridin-6-yl]-3-[4-(trifluoromethyl)-benzyl]urea] | 6.52 nM | –
Cc1cc(-c2n[nH]c3cc(NC(=O)Nc4ccc(NCCc5ccccc5)nn4)ncc23)ccn1 [Example 55, 1-[3-(2-methylpyridin-4-yl)-1H-pyrazolo[4,3-c]pyridin-6-yl]-3-{6-[(2-phenylethyl)amino]pyridazin-3-yl}urea] | 35 nM | –
Cc1cc(-c2n[nH]c3cc(NC(=O)NCc4ccc(F)c(Cl)c4)ncc23)ccn1 [Example 56, 1-(3-chloro-4-fluorobenzyl)-3-[3-(2-methylpyridin-4-yl)-1H-pyrazolo[4,3-c]pyridin-6-yl]urea] | 0.411 nM | 0.2 to 1.7 nM
O=C(NCc1ccc(F)c(Cl)c1)Nc1cc2[nH]nc(-c3ccnc(F)c3)c2cn1 [Example 58, 1-(3-chloro-4-fluorobenzyl)-3-[3-(2-fluoropyridin-4-yl)-1H-pyrazolo[4,3-c]pyridin-6-yl]urea] | 1 nM | 0.2 to 1.7 nM
Cn1cc(-c2n[nH]c3cc(NC(=O)NCc4ccc(F)c(Cl)c4)ncc23)cn1 [Example 60, 1-(3-chloro-4-fluorobenzyl)-3-[3-(1-methyl-1H-pyrazol-4-yl)-1H-pyrazolo[4,3-c]pyridin-6-yl]urea] | 0.251 nM | 0.2 to 1.7 nM
Cn1cc2cc(-c3n[nH]c4cc(NC(=O)NCc5ccc(F)c(Cl)c5)ncc34)ccc2n1 [Example 64, 1-(3-chloro-4-fluorobenzyl)-3-[3-(2-methyl-2H-indazol-5-yl)-1H-pyrazolo[4,3-c]pyridin-6-yl]urea] | 0.586 nM | 0.2 to 1.7 nM
C[C@@H](NC(=O)Nc1cc2[nH]nc(Br)c2cn1)c1ccc(F)c(Cl)c1 [Example 68, 1-(3-bromo-1H-pyrazolo[4,3-c]pyridin-6-yl)-3-[(1R)-1-(3-chloro-4-fluorophenyl)ethyl]urea] | 106 nM | –
Cc1cc(-c2n[nH]c3cc(NC(=O)NC(C)(C)c4ccc(Cl)cc4)ncc23)ccn1 [Example 70, 1-[1-(4-chlorophenyl)-1-methylethyl]-3-[3-(2-methylpyridin-4-yl)-1H-pyrazolo[4,3-c]pyridin-6-yl]urea] | 10.2 nM | –
Cc1cc(-c2n[nH]c3cc(NC(=O)NC4(c5ccc(Cl)cc5)CCOCC4)ncc23)ccn1 [Example 77, 1-[4-(4-chlorophenyl)tetrahydro-2H-pyran-4-yl]-3-[3-(2-methylpyridin-4-yl)-1H-pyrazolo[4,3-c]pyridin-6-yl]urea] | 15.1 nM | –
Cc1cc(-c2n[nH]c3cc(NC(=O)NC4CCc5ccccc54)ncc23)ccn1 (stereo not shown) [Example 78, 1-(2,3-dihydro-1H-inden-1-yl)-3-[3-(2-methylpyridin-4-yl)-1H-pyrazolo[4,3-c]pyridin-6-yl]urea] | 5.39 nM | –
